Experimental data as given in the supplement of paper PMC10307832.

Key:
Experiment in all cases: relative viability (nuclei count vs DMSO), 5 days (fraction); higher = more cells survive
Ibrutinib + Pictilisib = compound: C=CC(=O)N1CCC[C@@H](n2nc(-c3ccc(Oc4ccccc4)cc3)c3c(N)ncnc32)C1 [Ibrutinib] + CS(=O)(=O)N1CCN(Cc2cc3nc(-c4cccc5[nH]ncc45)nc(N4CCOCC4)c3s2)CC1 [Pictilisib] (partner 1 µM)
Summary of the method: (§1)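 Lung cancer cell lines were pin-tool dosed in 1536-well plates on the day after seeding, with either a lone drug or a fixed anchor-drug dose plus five library-drug doses (not always all listed) in √10 steps. Nuclei were counted on 4× images after 5 days. Relative viability is the ratio of treated-well to vehicle-well nuclei counts, with each value a median of duplicate plates.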

BMX-IN-1 + Lapatinib = compound: C=CC(=O)Nc1cc(-n2c(=O)ccc3cnc4ccc(-c5ccc(NS(C)(=O)=O)cc5)cc4c32)ccc1C [BMX-IN-1] + CS(=O)(=O)CCNCc1ccc(-c2ccc3ncnc(Nc4ccc(OCc5cccc(F)c5)c(Cl)c4)c3c2)o1 [Lapatinib] (partner 2 µM)
Summary of the method: as §1

BMX-IN-1 + Phenformin = compound: C=CC(=O)Nc1cc(-n2c(=O)ccc3cnc4ccc(-c5ccc(NS(C)(=O)=O)cc5)cc4c32)ccc1C [BMX-IN-1] + N=C(N)NC(=N)NCCc1ccccc1 [Phenformin] (partner 250 µM)
Summary of the method: as §1

PAC-1 + Crizotinib = compound: C=CCc1cccc(/C=N/NC(=O)CN2CCN(Cc3ccccc3)CC2)c1O [PAC-1] + C[C@@H](Oc1cc(-c2cnn(C3CCNCC3)c2)cnc1N)c1c(Cl)ccc(F)c1Cl [Crizotinib] (partner 1 µM)
Summary of the method: as §1

Row | Cell Line | relative viability (Ibrutinib + Pictilisib; first compound 0.01581 µM) | relative viability (Ibrutinib + Pictilisib; first compound 0.05 µM) | relative viability (Ibrutinib + Pictilisib; first compound 0.1581 µM) | relative viability (Ibrutinib + Pictilisib; first compound 0.5 µM) | relative viability (BMX-IN-1 + Lapatinib; first compound 0.02 µM) | relative viability (BMX-IN-1 + Lapatinib; first compound 0.2 µM) | relative viability (BMX-IN-1 + Lapatinib; first compound 0.6325 µM) | relative viability (BMX-IN-1 + Lapatinib; first compound 2 µM) | relative viability (BMX-IN-1 + Phenformin; first compound 0.02 µM) | relative viability (BMX-IN-1 + Phenformin; first compound 0.2 µM) | relative viability (BMX-IN-1 + Phenformin; first compound 0.6325 µM) | relative viability (BMX-IN-1 + Phenformin; first compound 2 µM) | relative viability (PAC-1 + Crizotinib; first compound 0.02 µM) | relative viability (PAC-1 + Crizotinib; first compound 0.06325 µM) | relative viability (PAC-1 + Crizotinib; first compound 0.2 µM) | relative viability (PAC-1 + Crizotinib; first compound 2 µM) | relative viability (Ibrutinib + Pictilisib; first compound 0.005 µM)
1 | HCC-366 | 0.125 | 0.141 | 0.124 | 0.14 | 1.53 | 1.65 | 1.07 | 1.12 | 0.503 | 0.625 | 0.639 | 0.603 | 0.542 | 0.479 | 0.454 | 0.591 | –
2 | HCC-827 | 0.909 | 1.02 | 1.08 | 0.458 | 0.189 | 0.203 | 0.193 | 0.206 | 0.342 | 0.42 | 0.4 | 0.421 | 0.982 | 0.943 | 0.875 | 0.889 | 0.916
3 | HOP-62 | 0.506 | 0.67 | 0.626 | 0.877 | 1.05 | 1.16 | 0.955 | 1.04 | 0.567 | 0.869 | 0.752 | 0.772 | 0.844 | 1.01 | 1.02 | 0.954 | 0.379
4 | IA-LM | 0.231 | 0.312 | 0.411 | 0.22 | 0.925 | 0.902 | 0.994 | 0.867 | – | – | – | – | 0.862 | 0.865 | 0.75 | 0.751 | 0.203
5 | LC-2-ad | 0.19 | 0.53 | 0.525 | 0.299 | 1.12 | 1.12 | 1.09 | 1.05 | 0.553 | 0.555 | 0.722 | 0.617 | 0.383 | 0.436 | 0.443 | 0.398 | 0.335
6 | LCLC-97TM1 | 0.203 | 0.263 | 0.156 | 0.18 | 0.862 | 1.24 | 1.41 | 0.816 | 0.383 | 0.455 | 0.503 | 0.471 | – | 0.252 | 0.358 | 0.298 | 0.114
7 | LCLC-103H | 0.535 | 0.557 | 0.517 | 0.653 | – | – | – | – | 0.304 | 0.389 | 0.319 | 0.317 | 1.07 | 1.15 | 0.974 | 1.02 | 0.72
8 | LK-2 | 0.472 | 0.532 | 0.494 | 0.488 | 1.1 | 1.37 | 0.68 | 0.924 | 0.487 | 0.505 | 0.473 | 0.548 | 0.231 | 0.233 | 0.234 | 0.289 | –
9 | LOU-NH91 | 0.475 | 0.512 | 0.487 | 0.487 | – | 0.792 | 0.819 | 0.819 | 0.411 | – | 0.882 | 0.704 | 0.747 | 0.762 | 0.723 | 0.728 | 0.451
10 | LU99A | 0.34 | 0.355 | 0.324 | 0.336 | 1.15 | 1.04 | 0.981 | 0.913 | 0.817 | 0.811 | 1.06 | 0.759 | 0.618 | 0.581 | 0.515 | 0.544 | 0.274
11 | LXF-289 | 0.724 | 0.802 | 0.794 | 0.758 | 0.982 | 1.01 | 0.957 | 0.983 | 0.481 | 0.521 | 0.538 | 0.536 | 0.833 | 0.807 | 0.789 | 0.835 | 0.733
12 | NCI-H23 | 0.458 | 0.562 | 0.391 | 0.395 | 1.04 | 1.24 | 1.01 | 1 | 0.724 | 0.956 | 0.828 | 0.838 | 0.481 | 0.396 | 0.489 | 0.535 | 0.319
13 | NCI-H322M | 0.562 | 0.597 | 0.374 | 0.467 | 0.626 | 0.591 | 0.563 | 0.578 | 0.867 | 0.821 | 0.795 | 0.791 | 0.792 | 0.839 | 0.877 | 0.854 | 0.431
14 | NCI-H358 | 0.372 | 0.291 | 0.315 | 0.264 | 0.48 | 0.431 | 0.4 | 0.412 | 0.355 | 0.342 | 0.384 | 0.324 | 0.552 | 0.531 | 0.751 | 0.453 | 0.28
15 | NCI-H441 | 0.551 | 0.619 | 0.435 | 0.449 | – | – | – | – | 0.864 | 1.02 | 0.991 | 1 | 0.725 | 0.77 | 0.714 | 0.655 | 0.586
16 | NCI-H460 | 0.365 | 0.313 | 0.19 | 0.256 | – | 1.36 | 1.75 | 1.1 | 0.917 | 0.576 | 0.677 | 0.609 | 0.887 | 0.805 | 0.823 | 1.07 | 0.331
17 | NCI-H522 | – | – | – | – | – | – | – | – | 0.77 | 0.64 | 0.669 | 0.635 | – | – | – | – | –
18 | NCI-H1299 | 0.555 | 0.773 | 0.699 | 0.854 | 1 | 0.986 | 1.06 | 0.962 | – | – | – | – | 0.936 | 0.94 | 0.937 | 0.891 | 0.571
19 | NCI-H1395 | 0.555 | 0.538 | 0.562 | 0.655 | 1.03 | 0.996 | 1.12 | 0.951 | 0.445 | 0.456 | 0.444 | 0.47 | – | – | – | – | 0.611
20 | NCI-H1623 | – | – | – | – | – | – | – | – | 0.527 | 0.676 | 0.585 | 0.601 | – | – | – | – | –
21 | NCI-H1703 | 0.233 | 0.205 | 0.241 | 0.222 | 1.69 | 1.24 | 1.31 | 0.677 | – | – | – | – | 0.588 | 0.897 | 0.851 | 0.622 | –
22 | NCI-H1793 | 0.466 | 0.323 | 0.357 | 0.274 | 0.755 | 1.22 | 0.72 | 0.872 | 0.272 | 0.398 | 0.467 | 0.433 | – | – | – | – | –
23 | NCI-H2342 | – | – | – | – | – | – | – | – | 0.651 | 0.7 | 0.55 | 0.617 | – | – | – | – | –
24 | SW 900 | – | – | – | – | – | – | – | – | 0.545 | 0.82 | 0.614 | 0.543 | – | – | – | – | –
